Experimental findings from ChEMBL document CHEMBL1201862, “PubChem BioAssay data set” (2004) are described below.

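Dose response: 5 concentrations. Exposure: 48 h. Format: 96-well plates. Endpoint: linear interpolation; highest concentration if not reached. GI50 is the concentration that inhibits growth by half.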 Activity calls are given as the source filed them. Cut-off read from the data, not from the text of the source: active = GI50 up to about 1.1 µM and inactive = higher.

Some test systems named below: 786-0; A549; EKVX; HCT-15; HL-60; HOP-62; HOP-92; Hs-578T; IGROV-1; KM12; MDA-MB-435; Malme-3M; NCI-H460; OVCAR-4; OVCAR-5; RXF 393; SK-MEL-2; SK-MEL-5; TK-10; U-251.
Test in all cases: inhibition of tumour cell growth, NCI panel, 48 h

Turning to `Cc1cccc2c(N)c3cccc(C(=O)NCC[N+](C)(C)Cc4ccc([N+](=O)[O-])n4C)c3nc12`, the GI50 with 786-0 is 7.45 µM (inactive); with A549, 1.92 µM (inactive); in the assay with EKVX, 27.6 µM (inactive); in the assay with HCT-15, 27.9 µM; with HL-60, 4.6 µM (inactive); with HOP-62, 5.25 µM (inactive). For the same compound, the GI50 with HOP-92 was 33.5 µM (inactive); with Hs-578T, 7.26 µM (inactive); with IGROV-1, 9.53 µM (inactive); with KM12, 16.7 µM (inactive); with MDA-MB-435, 52 µM (inactive); in the assay on Malme-3M it was 15.2 µM (inactive). For the same compound, the GI50 is 8.97 µM (inactive) in the assay with NCI-H460; 46.8 µM (inactive) with OVCAR-4; 17.6 µM (inactive) with OVCAR-5; 22.4 µM (inactive) in the assay with RXF 393; 67.6 µM (inactive) with SK-MEL-2; 21.7 µM (inactive) in the assay with SK-MEL-5. Further, the GI50 in the assay on TK-10 was 47.9 µM (inactive); in the assay on U-251, 8.26 µM (inactive).
For the compound `CC(C)c1ccc(C2NC(S)=NC3=C2c2ccccc2C3=O)cc1` (stereo not drawn), the GI50 was 22.5 µM (inactive) in the assay on 786-0; 28.6 µM (inactive) in the assay with A549; 33.4 µM (inactive) in the assay on EKVX; 20.6 µM with HCT-15; 8.75 µM (inactive) in the assay on HL-60; 25.8 µM (inactive) in the assay with HOP-62. For the same compound, the GI50 in the assay with HOP-92 is 22.3 µM (inactive); in the assay on Hs-578T, 14.8 µM (inactive); with IGROV-1, 27 µM (inactive); in the assay with KM12, 27.4 µM (inactive); with MDA-MB-435 it was 6.97 µM (inactive); with Malme-3M, 26.2 µM (inactive). In addition, the GI50 with NCI-H460 is 29.2 µM (inactive); in the assay with OVCAR-4, 21.6 µM (inactive); in the assay with OVCAR-5, 34 µM (inactive); with RXF 393, 10.3 µM (inactive); in the assay on SK-MEL-2 it was 17.4 µM (inactive); in the assay with SK-MEL-5, 20.1 µM (inactive). Also, the GI50 in the assay on TK-10 was 34 µM (inactive); with U-251, 26.7 µM (inactive).
On to `COc1ccc(N2C(=O)CSC2c2cc3cc(Br)ccc3nc2Cl)cc1` (stereo not drawn), for which the GI50 was > 50 µM (inactive) in the assay with 786-0; 48.6 µM (inactive) with A549; > 50 µM (inactive) with EKVX; 31.5 µM in the assay with HCT-15; > 50 µM (inactive) in the assay with HL-60; > 50 µM (inactive) in the assay with HOP-62. Besides, the GI50 in the assay on HOP-92 is > 50 µM (inactive); in the assay with Hs-578T it was > 50 µM (inactive); in the assay on IGROV-1, > 50 µM (inactive); in the assay with KM12, 20.9 µM (inactive); in the assay with MDA-MB-435 it was 23.7 µM (inactive); in the assay on Malme-3M, > 50 µM (inactive). Moreover, the GI50 with NCI-H460 is 22.1 µM (inactive); in the assay with OVCAR-4, > 50 µM (inactive); in the assay with OVCAR-5, > 50 µM (inactive); in the assay with RXF 393, > 50 µM (inactive); in the assay with SK-MEL-2, 35.6 µM (inactive); in the assay with SK-MEL-5 it was 37.4 µM (inactive). Further, the GI50 in the assay on TK-10 is > 50 µM (inactive).
For `NS(=O)(=O)c1ccc(NC(=S)NC(=O)Nc2ccc(Cl)c(Cl)c2)cc1`, the GI50 with 786-0 was 14.9 µM (inactive); with A549 it was 14.4 µM (inactive); in the assay with EKVX, 23.7 µM (inactive); with HCT-15, 11.4 µM; in the assay on HL-60, 10.5 µM (inactive); in the assay with HOP-62, 17.4 µM (inactive). Further, the GI50 in the assay on HOP-92 was 26.5 µM (inactive); in the assay on Hs-578T it was 25.1 µM (inactive); with IGROV-1, 19.3 µM (inactive); with KM12, 9.29 µM (inactive); in the assay on MDA-MB-435, 14.4 µM (inactive); with Malme-3M, 15.2 µM (inactive). Moreover, the GI50 was 13 µM (inactive) in the assay with NCI-H460; 14.9 µM (inactive) in the assay on OVCAR-4; 12.8 µM (inactive) in the assay with OVCAR-5; 15.3 µM (inactive) in the assay on RXF 393; 15 µM (inactive) in the assay with SK-MEL-2; 16.1 µM (inactive) in the assay on SK-MEL-5. Further, the GI50 was 25.1 µM (inactive) in the assay on TK-10 and 14.9 µM (inactive) in the assay on U-251.
For `COc1ccc(OC)c(C2CCc3cnc4nc(N)nc(N)c4c3C2)c1` (stereo not drawn), the GI50 with 786-0 was 66.7 µM (inactive); in the assay with A549, 59.6 µM (inactive); in the assay with EKVX, > 100 µM (inactive); in the assay on HCT-15, greater than 100 µM; in the assay on HL-60, > 100 µM (inactive); with HOP-62, > 100 µM (inactive). The GI50 with HOP-92 is > 100 µM (inactive); with Hs-578T it was > 100 µM (inactive); with IGROV-1, 56 µM (inactive); with KM12, > 100 µM (inactive); in the assay on MDA-MB-435, 87.1 µM (inactive); with Malme-3M, > 100 µM (inactive). For the same compound, the GI50 was 57.3 µM (inactive) in the assay with NCI-H460; > 100 µM (inactive) in the assay with OVCAR-4; > 100 µM (inactive) in the assay on OVCAR-5; 33.6 µM (inactive) with RXF 393; > 100 µM (inactive) in the assay with SK-MEL-2; > 100 µM (inactive) in the assay on SK-MEL-5. Besides, the figures for the GI50 in the assay with TK-10 and with U-251 were > 100 µM (inactive) and 48.8 µM (inactive), respectively.
As for `Nc1cccc(OCC2CCCN3CCCCC23)c1` (stereo not drawn), the GI50 in the assay with 786-0 was 15.6 µM (inactive); in the assay with A549 it was 21.4 µM (inactive); in the assay with EKVX, 17.2 µM (inactive); in the assay with HCT-15, 17.5 µM; in the assay with HL-60, 20.1 µM (inactive); in the assay with HOP-62 it was 16.2 µM (inactive). In addition, the GI50 in the assay on HOP-92 is 28.5 µM (inactive); in the assay with Hs-578T it was 16.7 µM (inactive); in the assay on KM12, 17.6 µM (inactive); in the assay with MDA-MB-435 it was 22.5 µM (inactive); with Malme-3M, 23.5 µM (inactive); with NCI-H460, 19 µM (inactive). For the same compound, the GI50 in the assay with OVCAR-4 is 23.2 µM (inactive); in the assay on OVCAR-5, 17.7 µM (inactive); in the assay with RXF 393, 20.5 µM (inactive); in the assay on SK-MEL-2, 20.1 µM (inactive); in the assay with SK-MEL-5, 18.9 µM (inactive); in the assay with TK-10, 17.4 µM (inactive). For the same compound, the GI50 in the assay with U-251 was 24.4 µM (inactive).
Turning to `CC1SCc2nc3ccccc3n21` (stereo not drawn), the GI50 is > 100 µM (inactive) in the assay with 786-0; > 100 µM (inactive) in the assay with A549; > 100 µM (inactive) in the assay with EKVX; greater than 100 µM with HCT-15; > 100 µM (inactive) with HL-60; > 100 µM (inactive) in the assay with HOP-62. In addition, the GI50 in the assay on HOP-92, with Hs-578T, in the assay with IGROV-1, in the assay on KM12, in the assay on MDA-MB-435 and with Malme-3M was > 100 µM (inactive) in each case. Also, the GI50 in the assay on NCI-H460, with OVCAR-4, in the assay with OVCAR-5, in the assay with RXF 393, in the assay on SK-MEL-2 and in the assay on SK-MEL-5 was > 100 µM (inactive) throughout. The GI50 in the assay on TK-10 and in the assay with U-251 was > 100 µM (inactive) in each case.
